ED50 data for 7 compounds are collected here from patent EP0095262A1, “Azabicycloalkane derivatives, their preparation and medicaments containing them” (BEECHAM GROUP PLC, priority 1982, dated 1983).

The subject of one test is post-synaptic Dopamine (D.A.) receptors. Briefly: Inhibition of apomorphine induced climbing in the mouse. The note with it: p.o., ½ hr post dosing; dose for 50% inhibition of climbing induced by apomorphine 1 mg/kg s.c.; male CD1 mice; 30 min. Type of test: in vivo. How it is done:
The results in the following table are an illustration of the anti-psychotic activity of the present compounds as shown by Inhibition of Apormorphine Induced Climbing in the Mouse, a standard test.
The test is based on that described by Protais, P., Constantin, J. and Schwartz J.C. (1976), Psychopharmacology, 50, 1-6.
When mice are given a dose of 1 mg/kg apomorphine and then placed in an enclosed environment, such as an inverted wire cage, they are seen to climb around the walls. This behavioural phenomenon is thought to be a consequence of the stimulation of post-synaptic Dopamine (D.A.) receptors in the nucleus accumbens. Inhibition of apomorphine induced climbing is therefore indicative of post-synaptic D.A. receptor blockade in the accumbens.
Groups of lO male CD1 mice, weighing 25-30 g were pre-treated orally with either graded doses of the test compound or vehicle, at appropriate time intervals before the subcutaneous administration of a sub-maximal dose of apomorphine (1 mg/kg). Immediately after the apomorphine injection the mice were placed in wire 'climbing cages' and each animal was scored for climbing behavour at 10 and 20 minutes post apomorphine as follows:-
The total score was calculated for each group of mice and expressed as a percentage inhibition of climbing. [formula]
ED50's and fiducial limits were calculated according to the method of Litchfield and Wilcoxon, the ED50 being the dose that produced a 50% inhibition of apomorphine - induced climbing.
The compound “4-Amino-5 -Chloro-2-Methoxy-N-[7'-Methyl-9'-(4-Methylbenzyl)-9'-aza-bicyclo[3.3.1]-non-3-P-yl]benzamide [Example 5]” came in with an ED50 of 0.6 p.o. ½ hr mg/kg.

Take “4-Amino-5-Chloro-2-Methoxy-N-[6'-endomethyl-9'-(4 methyl- benzyiyl)-9'-aza-bicyclo[3.3,1]-non-3-β- 1]benzamide [Example 6]”: the ED50 was determined as 1.1 p.o. ½ hr mg/kg.

“4-Amino-5-Chloro-2-Methoxy-N-[6'-exo-methl-9'-(4-methylbenzyl)-9'-aza-bicyclo[3.3.1]-non-3-β-yl]benzamide [Example 7]” gave an ED50 of 2.75 p.o. ½ hr mg/kg.

In turn, “2,3-Dimethoxy-N-[7'-exo-Methyl-9'-(4-methylbenzyl)-9'-aza- bicycclo-[3.3.1]-non-3-β-yl]benzamide [Example 8]” yielded an ED50 of 0.48 p.o. ½ hr mg/kg.

Consider `COc1cc(N)c(Cl)cc1C(=O)NC1CC2CC(C)C(C1)N2Cc1ccc(C)cc1` (stereo not drawn) [Example 1, 4-Amiho-5-chloro-2-rnethoxyy-N-[6'-exo-methyl-8'-(4-methylbenzyl)-8'-azabicycloro[3.2.1]-oct-3-β-yl]-benzamide], for which the ED50 came to 0.19 p.o. ½ hr mg/kg.

As for “2-[7'-exo-Methyl-9'-(4-methyl benzyl)-9'-aza-bicyclo[3.3.1] -non-3-β-yl]-phthalimidine [Example 9]”, the ED50 is recorded as 2.65 p.o. ½ hr mg/kg.

The same test, now with this note: s.c., 4 hrs post dosing; dose for 50% inhibition of climbing induced by apomorphine 1 mg/kg s.c.; male CD1 mice.
“4-Amino-5-chloro-2-methoxy-N-[6'-exo-hydroxy-8'-benzyl-8'-azabicyclol[3.2.1]-oct-3'-β-yl]-benzamide [Example 4]” showed an ED50 of 0.47 s.c. 4 hrs mg/kg.
